Biological target: NQO1 protein (Homo sapiens, UniProt P15559)
Assay: In vitro NQO1 enzyme activity assay (cytochrome C reduction, absorbance at 550 nm)
Type: biochemical
Conditions: NQO1 2 ng
Experimental: In order to evaluate the activity of the synthesized compound in NQO1, the experiments were performed as follows:
The synthesized compound was dissolved in DMSO to make a 10 mM stock solution, which was further diluted with DMSO to 250 μM so as to prepare a working solution. For experimental groups, the working solution of the compound was added to an enzyme reaction solution in which 50 μL of 1.54 mM Cytochrome C solution was added to 900 μL of 50 mM Tris-HCl (pH7.5) containing 0.14% BSA. For negative control groups, DMSO not containing the compound of the invention was added to the enzyme reaction solution as above. For each experimental and control group, 20 μL of 100 ng/mL NQO1 protein was added, and then 10 μL of 20 mM NADH was added to bring up the total volume to 1 mL. The change of absorbance was measured at 550 nm for 10 minutes using 1 mL cuvette. The kinetics of reaction was measured by the increase of absorbance as the cytochrome C was reduced at 550 nm over 10 minutes. The activity of NQO1 was measured by the amount of cytochrome C that is being reduced (nmol cytochrome C that was reduced/min/ug NQO1 protein). • Absorption coefficient of Cytochrome C: 21.1 (μmol/mL)^−1cm^−1 • BSA: Bovine Serum Albumin • […]: Tris(hydroxymethyl)aminomethane hydrochloride (buffer solution) • Equipment=Cary 100 UV-Vis Spectrophotometer • The results are shown in Tables 1 to 8.

NQO1 protein, sequence (P15559 whole entry, species assumed): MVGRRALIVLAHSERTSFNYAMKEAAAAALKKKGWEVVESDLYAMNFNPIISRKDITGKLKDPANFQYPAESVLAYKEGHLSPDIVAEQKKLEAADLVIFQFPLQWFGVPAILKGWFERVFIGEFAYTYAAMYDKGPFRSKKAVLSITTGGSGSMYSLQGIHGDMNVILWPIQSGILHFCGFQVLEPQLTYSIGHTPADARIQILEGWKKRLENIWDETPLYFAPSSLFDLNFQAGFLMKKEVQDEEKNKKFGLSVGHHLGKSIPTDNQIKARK

## Cc1nn(-c2ccc(F)cc2F)c2c1C(=O)C(=O)c1ccccc1-2 [Compound 32, 1-(2,4-Difluorophenyl)-3-methyl-1H-benzo[g]indazol-4,5-dione]
10 nM Compound (Table 1)
  NQO1 activity assay Cytochrome C reduced/min/μg NQO1 protein: 839 nmol cytochrome C that was reduced/min/ug NQO1 protein

## O=C1C(=O)c2cnn(-c3ccccc3)c2-c2ccccc21 [Compound 33, 1-Phenyl-1H-benzo[g]indazol-4,5-dione]
10 nM Compound (Table 1)
  NQO1 activity assay Cytochrome C reduced/min/μg NQO1 protein: 436 nmol cytochrome C that was reduced/min/ug NQO1 protein

## O=C1C(=O)c2c(C(F)(F)F)nn(-c3ccccc3)c2-c2ccccc21 [Compound 34, 1-Phenyl-3-(trifluoromethyl)-1H-benzo[g]indazol-4,5-dione]
10 nM Compound (Table 1)
  NQO1 activity assay Cytochrome C reduced/min/μg NQO1 protein: 716 nmol cytochrome C that was reduced/min/ug NQO1 protein

## Cc1nn(-c2ccccc2)c2c1C(=O)C(=O)c1cc(F)ccc1-2 [Compound 35, 7-Fluoro-3-methyl-1-phenyl-1H-benzo[g]indazol-4,5-dione]
10 nM Compound (Table 1)
  NQO1 activity assay Cytochrome C reduced/min/μg NQO1 protein: 694 nmol cytochrome C that was reduced/min/ug NQO1 protein

## Cc1nn(-c2cc(Cl)cc(Cl)c2)c2c1C(=O)C(=O)c1ccccc1-2 [Compound 36, 1-(3,5-Dichlorophenyl)-3-methyl-1H-benzo[g]indazol-4,5-dione]
50 nM Compound (Table 2)
  NQO1 activity assay Cytochrome C reduced/min/μg NQO1 protein: 1873 nmol cytochrome C that was reduced/min/ug NQO1 protein

## Cc1nn(-c2ccc(C(=O)O)cc2)c2c1C(=O)C(=O)c1ccccc1-2 [Compound 37, 4-(3-Methyl-4,5-dioxo-4,5-dihydro-1H-benzo[g]indazol-1-yl)benzoic acid]
50 nM Compound (Table 2)
  NQO1 activity assay Cytochrome C reduced/min/μg NQO1 protein: 1034 nmol cytochrome C that was reduced/min/ug NQO1 protein

## Cc1nn(-c2cccc3ccccc23)c2c1C(=O)C(=O)c1ccccc1-2 [Compound 38, 3-Methyl-1-(naphthalen-1-yl)-1H-benzo[g]indazol-4,5-dione]
50 nM Compound (Table 4)
  NQO1 activity assay Cytochrome C reduced/min/μg NQO1 protein: 2696 nmol cytochrome C that was reduced/min/ug NQO1 protein

## Cc1nn(-c2cncc(Cl)c2)c2c1C(=O)C(=O)c1ccccc1-2 [Compound 39, 1-(5-Chloropyridin-3-yl)-3-methyl-1H-benzo[g]indazol-4,5-dione]
50 nM Compound (Table 4)
  NQO1 activity assay Cytochrome C reduced/min/μg NQO1 protein: 3285 nmol cytochrome C that was reduced/min/ug NQO1 protein

## Cc1nn(-c2nccs2)c2c1C(=O)C(=O)c1ccccc1-2 [Compound 40, 3-Methyl-1-(thiazol-2-yl)-1H-benzo[g]indazol-4,5-dione]
50 nM Compound (Table 3)
  NQO1 activity assay Cytochrome C reduced/min/μg NQO1 protein: 2041 nmol cytochrome C that was reduced/min/ug NQO1 protein

## Cc1nn(-c2ccncc2)c2c1C(=O)C(=O)c1ccccc1-2 [Compound 41, 3-Methyl-1-(pyridin-4-yl)-1H-benzo[g]indazol-4,5-dione]
50 nM Compound (Table 3)
  NQO1 activity assay Cytochrome C reduced/min/μg NQO1 protein: 1617 nmol cytochrome C that was reduced/min/ug NQO1 protein

## Cc1c2c(nn1-c1ccncc1)-c1ccccc1C(=O)C2=O [Compound 42, 3-Methyl-2-(pyridin-4-yl)-2H-benzo[g]indazol-4,5-dione]
50 nM Compound (Table 3)
  NQO1 activity assay Cytochrome C reduced/min/μg NQO1 protein: 3212 nmol cytochrome C that was reduced/min/ug NQO1 protein

## Cc1n[nH]c2c1C(=O)C(=O)c1ccccc1-2 [Compound 43, 3-Methyl-1H-benzo[g]indazol-4,5-dione]
50 nM Compound (Table 2)
  NQO1 activity assay Cytochrome C reduced/min/μg NQO1 protein: 1008 nmol cytochrome C that was reduced/min/ug NQO1 protein

## Cc1c2c(nn1S(=O)(=O)c1ccccc1)-c1ccccc1C(=O)C2=O [Compound 44, 3-Methyl-2-(phenylsulfonyl)-2H-benzo[g]indazol-4,5-dione]
50 nM Compound (Table 3)
  NQO1 activity assay Cytochrome C reduced/min/μg NQO1 protein: 2169 nmol cytochrome C that was reduced/min/ug NQO1 protein

## Cc1c2c(nn1S(=O)(=O)c1ccc(F)cc1)-c1ccccc1C(=O)C2=O [Compound 45, 3-Methyl-2-(4-Fluorophenylsulfonyl)-2H-benzo[g]indazol-4,5-dione]
50 nM Compound (Table 5)
  NQO1 activity assay Cytochrome C reduced/min/μg NQO1 protein: 2092 nmol cytochrome C that was reduced/min/ug NQO1 protein

## Cc1c2c(nn1S(=O)(=O)c1ccccc1Cl)-c1ccccc1C(=O)C2=O [Compound 46, 2-(2-Chlorophenylsulfonyl)-3-methyl-2H-benzo[g]indazol-4,5-dione]
50 nM Compound (Table 5)
  NQO1 activity assay Cytochrome C reduced/min/μg NQO1 protein: 1522 nmol cytochrome C that was reduced/min/ug NQO1 protein

## Cc1c2c(nn1S(=O)(=O)c1cccc(Cl)c1)-c1ccccc1C(=O)C2=O [Compound 47, 2-(3-Chlorophenylsulfonyl)-3-methyl-2H-benzo[g]indazol-4,5-dione]
50 nM Compound (Table 5)
  NQO1 activity assay Cytochrome C reduced/min/μg NQO1 protein: 1277 nmol cytochrome C that was reduced/min/ug NQO1 protein

## Cc1c2c(nn1S(=O)(=O)c1cccnc1)-c1ccccc1C(=O)C2=O [Compound 48, 3-Methyl-2-(pyridin-3-ylsulfonyl)-2H-benzo[g]indazol-4,5-dione]
50 nM Compound (Table 5)
  NQO1 activity assay Cytochrome C reduced/min/μg NQO1 protein: 1749 nmol cytochrome C that was reduced/min/ug NQO1 protein

## Cc1c2c(nn1S(=O)(=O)c1ccc(Cl)cc1)-c1ccccc1C(=O)C2=O [Compound 49, 2-(4-Chlorophenylsulfonyl)-3-methyl-2H-benzo[g]indazol-4,5-dione]
50 nM Compound (Table 6)
  NQO1 activity assay Cytochrome C reduced/min/μg NQO1 protein: 2171 nmol cytochrome C that was reduced/min/ug NQO1 protein

## Cc1ccc(S(=O)(=O)n2nc3c(c2C)C(=O)C(=O)c2ccccc2-3)cc1 [Compound 50, 3-Methyl-2-tosyl-2H-benzo[g]indazol-4,5-dione]
50 nM Compound (Table 6)
  NQO1 activity assay Cytochrome C reduced/min/μg NQO1 protein: 1542 nmol cytochrome C that was reduced/min/ug NQO1 protein

## COc1ccc(S(=O)(=O)n2nc3c(c2C)C(=O)C(=O)c2ccccc2-3)cc1 [Compound 51, 2-(4-Methoxyphenylsulfonyl)-3-methyl-2H-benzo[g]indazol-4,5-dione]
50 nM Compound (Table 6)
  NQO1 activity assay Cytochrome C reduced/min/μg NQO1 protein: 1288 nmol cytochrome C that was reduced/min/ug NQO1 protein

## COC(=O)c1ccc(S(=O)(=O)n2nc3c(c2C)C(=O)C(=O)c2ccccc2-3)cc1 [Compound 52, Methyl 4-(3-methyl-4,5-dioxo-4,5-dihydro-2H-benzo[g]indazol-2-ylsulfonyl)benzoate]
50 nM Compound (Table 7)
  NQO1 activity assay Cytochrome C reduced/min/μg NQO1 protein: 2179 nmol cytochrome C that was reduced/min/ug NQO1 protein

## Cc1c2c(nn1S(=O)(=O)C1CC1)-c1ccccc1C(=O)C2=O [Compound 53, 2-(Cyclopropylsulfonyl)-3-methyl-2H-benzo[g]indazol-4,5-dione]
50 nM Compound (Table 7)
  NQO1 activity assay Cytochrome C reduced/min/μg NQO1 protein: 1549 nmol cytochrome C that was reduced/min/ug NQO1 protein

## Cc1c2c(nn1S(=O)(=O)C1CCCC1)-c1ccccc1C(=O)C2=O [Compound 54, 2-(Cyclopentylsulfonyl)-3-methyl-2H-benzo[g]indazol-4,5-dione]
50 nM Compound (Table 7)
  NQO1 activity assay Cytochrome C reduced/min/μg NQO1 protein: 1295 nmol cytochrome C that was reduced/min/ug NQO1 protein

## Cc1c2c(nn1S(=O)(=O)c1ccc(C#N)cc1)-c1ccccc1C(=O)C2=O [Compound 55, 4-(3-Methyl-4,5-dioxo-4,5-dihydro-2H-benzo[g]indazol-2-ylsulfonyl)benzonitrile]
50 nM Compound (Table 7)
  NQO1 activity assay Cytochrome C reduced/min/μg NQO1 protein: 1892 nmol cytochrome C that was reduced/min/ug NQO1 protein

## Cc1c2c(nn1S(=O)(=O)c1ccc([N+](=O)[O-])cc1)-c1ccccc1C(=O)C2=O [Compound 56, 3-Methyl-2-(4-nitrophenylsulfonyl)-2H-benzo[g]indazol-4,5-dione]
50 nM Compound (Table 7)
  NQO1 activity assay Cytochrome C reduced/min/μg NQO1 protein: 1839 nmol cytochrome C that was reduced/min/ug NQO1 protein

## Cc1c2c(nn1S(=O)(=O)c1ccc(C(F)(F)F)cc1)-c1ccccc1C(=O)C2=O [Compound 57, 3-Methyl-2-(4-(trifluoromethyl)phenylsulfonyl)-2H-benzo[g]indazol-4,5-dione]
50 nM Compound (Table 7)
  NQO1 activity assay Cytochrome C reduced/min/μg NQO1 protein: 1868 nmol cytochrome C that was reduced/min/ug NQO1 protein

Source: patent publication US12570613B2, “Imidazoquinoline or benzoindazolone compound and intermediate for preparing same” (LMITO THERAPEUTICS INC., priority 2020, dated 2026)
